From patent publication US4022912A, “Use of 1-decarboxy-1-hydroxymethyl-PGE1 in therapeutic bronchodilation” (priority 1976, dated 1977)
Like-named read-outs stand apart in the source and are kept apart here.

Tests used:
[1] = test system: Histamine-Induced Bronchoconstriction; experiment: Inhibition of intravenous histamine-induced bronchoconstriction in the anesthetized guinea pig by inhalational administration; format: in vivo; details: 0.001 μg/ml in stock solution aerosolized; inhalation
Description: (§1) Male albino guinea pigs (400-600 g; Dunkin-Hartley Strain) were anesthetized with pentobarbitone sodium (60 mg/kg intraperitoneally).
(§2) Trachea, external jugular vein and carotid artery were cannulated for recording ventilation, intravenous administration of drugs, and blood pressure respectively. The animals were artificially respired throughout the experiment. Electrocardiograms were also recorded. Respiratory flow was charted on a twin-channel recorder fixed to an SE differential pressure transducer.
(§3) Histamine was administered intravenously at 5 minute intervals. The test drug was administered intravenously 15 seconds prior to histamine in order to inhibit bronchoconstriction.
Details of the procedure of this example are the same as those in preceding Example 2 with the exception that the test compounds were delivered in aerosol form into the trachea of the test aminals.

bronchial smooth muscle = details: by inhalation or intravenously; cited from earlier work
bronchodilation = details: inhalational administration to guinea pigs; cited from earlier work
[2] = test system: Guinea Pig Tracheal Tissue; experiment: Relaxation of guinea pig tracheal tissue in vitro; format: cell-based; details: Table B, standard error in parentheses
Description: Male guinea pigs weighing 200-500 g were killed by a blow on the head. A 20 mm length of trachea was dissected from each of the animals, transferred to a petri dish containing Krebs' solution aerated with 95% O2 and 5% CO2 at 37° C., and cut longitudinally opposite the tracheal muscle. The tissue was then cut transversely three quarters of the distance across; a second cut in the opposite direction again three quarters of the distance across the tissue was made, and the procedure was continued for the whole tissue. The ends of the trachea were pulled to form a zig-zag shaped strip. The tracheal strips used in the experiment were approximately 30 mm when extended under 0.25-0.5 g load in a tissue bath. Cotton thread was tied to one end of the tissues, and linen thread to the other. The tissues were attached via the linen thread to a glass hook in a 5 ml isolated tissue bath containing Krebs' solution at 37° C. aerated with a mixture of 95% O2 and 5% CO2. The opposite ends were attached via cotton thread to an isotonic transducer. The load on the transducer lever was small, usually 0.3 g, with a range of 0.25-0.5 g; and the magnification high, 80-fold using an appropriate twin-channel pen recorder. A minimum of thirty minutes was allowed before applying a drug to the tissues. Drugs were then applied (in volumes of 0.5 ml) at thirty minute intervals, being in contact with the tissue for five minutes followed by an overflow washout time of twenty seconds.

tracheal smooth muscle [3] = details: isolated from a guinea pig; cited from earlier work
tracheal smooth muscle [4] = details: isolated from a human; cited from earlier work
[5] = test system: Convulsions Induced by Inhaled Histamine; experiment: Delay of convulsions induced by inhaled histamine in conscious guinea pigs; format: in vivo, guinea pig
Description: Conscious male albino guinea pigs (Dunkin-Hartley strain) weighing 200-300 g were placed (singly) in a 5-liter transparent chamber for 1 minute and subjected to an aerosol of vehicle or test drug in solution, plus histamine (1% w/v).
The time from the beginning of the administration of the aerosol to the start of the first convulsion (when the guinea pig is immediately removed from the aerosol) is the pre-convulsion time. Twenty-four hours later the general procedure was repeated. Guinea pigs treated with the test drug on the first day were treated with vehicle on the second day and vice versa in a cross-over design. Maximum time allowed in the aerosol was 10 minutes. An ultrasonic humidifier was used to produce the aerosol.

[6] = test system: Histamine-Induced Bronchoconstriction; experiment: Inhibition of histamine-induced bronchoconstriction in the anesthetized guinea pig in vivo by intravenous administration; details: Cavia porcellus, iv, i.v. 15 seconds prior to histamine
Description: as §1, §2, §3

**Q.** For CCCCC[C@H](O)/C=C/[C@H]1[C@H](O)CC(=O)[C@@H]1CCCCCCC(=O)O [PGE1, 11α,15α-dihydroxy-9-oxo-13-trans-prostenoic acid], which “Precent Inhibition of Histamine-Induced Bronchoconstriction” value [1] is on record?
**A.** 6%

**Q.** And the “relaxation of bronchial smooth muscle in vivo” value (bronchial smooth muscle)?
**A.** relaxes bronchial smooth muscle in vivo

**Q.** What about the “bronchodilation compared with isoprenaline” value (bronchodilation) of the same compound?
**A.** superior to that induced by isoprenaline

**Q.** What about the “Relaxation (×80) (± S.E.)” value ([2]; 0.001 μg/ml) of the same compound?
**A.** 0 mm

**Q.** What about the “Relaxation (×80) (± S.E.)” value ([2]; 0.010 μg/ml) of the same compound?
**A.** 24 (1) mm

**Q.** And the “Relaxation (×80) (± S.E.)” value ([2]; 0.100 μg/ml)?
**A.** 46 (19) mm

**Q.** And the “Relaxation (×80) (± S.E.)” value ([2]; 1.000 μg/ml)?
**A.** 75 (17) mm

**Q.** What about the “Relaxation (×80) (± S.E.)” value ([2]; 10.000 μg/ml) of the same compound?
**A.** 75 (65) mm

**Q.** And the “relaxation of isolated tracheal smooth muscle” value (tracheal smooth muscle [3])?
**A.** relaxes tracheal smooth muscle

**Q.** What about the “relaxation of isolated tracheal smooth muscle” value (tracheal smooth muscle [4]) of the same compound?
**A.** relaxes tracheal smooth muscle

**Q.** And the “Prolongation of Preconvulsion Time” value ([5]; Expt. 1B, 0.50 μg/ml stock solution aerosolized, P <0.1)?
**A.** 77 s

**Q.** And the “Prolongation of Preconvulsion Time” value ([5]; Expt. 1B, 2.50 μg/ml stock solution aerosolized, P <0.001)?
**A.** 225 s

**Q.** And the “Prolongation of Preconvulsion Time” value ([5]; Expt. 1B, 5.00 μg/ml stock solution aerosolized, N.S. at P ≤ 0.05)?
**A.** 139 s

**Q.** What about the “Prolongation of Preconvulsion Time” value ([5]; Expt. 1B, 10.00 μg/ml stock solution aerosolized, N.S. at P ≤ 0.05) of the same compound?
**A.** 267 s

**Q.** And the “Prolongation of Preconvulsion Time” value ([5]; Expt. 2B, 0.10 μg/ml stock solution aerosolized, N.S. at P ≤ 0.05)?
**A.** 495 s

**Q.** And the “Prolongation of Preconvulsion Time” value ([5]; Expt. 2B, 0.50 μg/ml stock solution aerosolized, P <0.01)?
**A.** 274 s

**Q.** What about the “Prolongation of Preconvulsion Time” value ([5]; Expt. 2B, 1.00 μg/ml stock solution aerosolized, P <0.01) of the same compound?
**A.** 294 s

**Q.** And the “Prolongation of Preconvulsion Time” value ([5]; Expt. 2B, 5.00 μg/ml stock solution aerosolized, N.S. at P ≤ 0.05)?
**A.** 664 s

**Q.** What about the ED50 ([6]; Experiment No. 1, read-out: Dose I.V. inhibiting bronchoconstriction by 50% (ID50)) of the same compound?
**A.** 0.603 µg/kg

**Q.** What about the ED50 ([6]; Experiment No. 2, read-out: Dose I.V. inhibiting bronchoconstriction by 50% (ID50)) of the same compound?
**A.** 0.966 µg/kg

**Q.** What about the ED50 ([6]; Experiment No. 3, read-out: Dose I.V. inhibiting bronchoconstriction by 50% (ID50)) of the same compound?
**A.** 0.263 µg/kg

**Q.** What about the ED50 ([6]; Experiment No. 4, read-out: Dose I.V. inhibiting bronchoconstriction by 50% (ID50)) of the same compound?
**A.** 0.864 µg/kg

**Q.** And the ED50 ([6]; Experiment No. 5, read-out: Dose I.V. inhibiting bronchoconstriction by 50% (ID50))?
**A.** 0.202 µg/kg

**Q.** And the ED50 ([6]; mean of experiments 1-5, read-out: Dose I.V. inhibiting bronchoconstriction by 50% (ID50), Mean)?
**A.** 0.579 µg/kg
